Consider eleven compounds from publication PMC12693156, “Antiprotozoal Aminosteroid Alkaloids from Buxus obtusifolia (Mildbr.) Hutch” (Molecules, 2025).

Each structure is given as a SMILES string. Read-outs that look alike come from different tables or passages of the source. Where only a bound is given, the exact number is not on record here.

A short description of data set [1]: Cytotoxicity assay against rat skeletal myoblasts (L6 cell line). It is filed as cell-based. As for the experimental part: (§1) In vitro biological activity against Trypanosoma brucei rhodesiense (bloodstream trypomastigotes, STIB 900 strain), Plasmodium falciparum (intraerythrocytic form, NF54 strain) and cytotoxicity assay against rat skeletal myoblasts (L6 cell line) were carried out at the Swiss Tropical and Public Health Institute (Swiss TPH, Allschwil, Switzerland) in accordance with the established standard procedures, in exactly the same manner and with the same cell lines as described recently.

Data set [2] relates to Plasmodium falciparum (Pf), NF54 strain. Nature of the data set: In vitro activity against Plasmodium falciparum (intraerythrocytic form, NF54 strain). As to conditions: for IC50: Plasmodium falciparum. Format: cell-based. The method, then: as §1
Data set [3] has as its system Trypanosoma brucei rhodesiense (Tbr), STIB 900 strain. Kind of data set: In vitro activity against Trypanosoma brucei rhodesiense (bloodstream trypomastigotes, STIB 900 strain). It is filed as cell-based. As for the experimental part: as §1
For data set [4] the test system is unchanged. On the set-up: method as in PMID 40076324. As to conditions: separately tested in a recent study; cited from earlier work.
The subject of data set [5] is Plasmodium falciparum (Pf), NF54 strain. Set-up: method as in PMID 40076324. The conditions noted are these: separately tested in a recent study; cited from earlier work.
Where [6] appears, read: NF54, mean of two separate IC50 determinations ± absolute deviation, compounds tested as bis- or mono-trifluoroacetates, read-out: Pf IC50.
The mark [7] stands for this setting: Trypanosoma brucei rhodesiense, mean of two separate IC50 determinations ± absolute deviation, compounds tested as bis- or mono-trifluoroacetates, read-out: Tbr IC50.

As usually defined, the IC50 is the concentration needed to halve the response being measured. For the compound `CN[C@H]1[C@H](O)C[C@]23C[C@]24CC[C@]2(C)[C@@H]([C@H](C)N(C)C)CC[C@@]2(C)[C@@H]4CC[C@H]3C1(C)C` [Compound 1, cycloprotobuxoline-C], the concentration for half-maximal inhibition (IC50) is over 100 µM in data set [1], 28 ± 0.7 µM in data set [2] (setting [6]) and 6.7 ± 3.3 µM in data set [3] (setting [7]).
As for `CN[C@H]1[C@H](O)C[C@]23C[C@]24CC[C@]2(C)[C@@H]([C@H](C)N(C)C)CC[C@@]2(C)[C@@H]4CC[C@H]3[C@]1(C)COC(=O)c1cc(OC)c(OC)c(OC)c1` [Compound 5, 29-trimethoxybenzoyloxy cycloprotobuxoline-C], the IC50 is 0.5 µM in data set [2] (setting [6]); under 1 µM in data set [2] (NF54, isolated compounds, tested as trifluoroacetate salts, molar IC50 calculated with mass of the salt, read-out: IC50 against Pf (antiplasmodial activity)); 1.6 ± 0.7 µM in data set [3] (setting [7]).
`CN[C@@H](C)[C@H]1CC[C@@]2(C)[C@@H]3C=C[C@H]4C(C)(C)[C@@H](N(C)C)CC[C@@]45C[C@@]35CC[C@]12C` [Compound 12, deoxycyclovirobuxeine-B]: the IC50 in data set [2] (setting [6]) was 5.4 ± 1.2 µM; in data set [3] (setting [7]), 0.8 ± 0.3 µM; in data set [3] (Trypanosoma brucei, isolated compounds, tested as trifluoroacetate salts, molar IC50 calculated with mass of the salt, read-out: IC50 against Tbr (antitrypanosomal activity)) it was under 1 µM.
Regarding `CN[C@@H](C)[C@H]1CC[C@@]2(C)[C@@H]3CC[C@H]4[C@]5(C)COCN(C)[C@H]5CC[C@@]45C[C@@]35CC[C@]12C` [Compound 15, N20-demethyl deoxycyclobuxoxazine-A], the half-inhibitory concentration (IC50) worked out at 5.8 ± 0.4 µM in data set [2] (setting [6]) and 6.6 ± 3.5 µM in data set [3] (setting [7]).
Take `CN[C@H]1CC[C@]23C[C@]24CC[C@]2(C)[C@@H](C(C)=O)[C@H](OC)C[C@@]2(C)[C@@H]4CC[C@H]3C1` [Compound 16, obtusibuxeine-A]: the results for the IC50 in data set [1], in data set [2] (setting [6]) and in data set [3] (setting [7]) were 45 ± 5.1 µM, 13 ± 1.4 µM and 22 ± 1.7 µM, respectively. Also, the “SI Pf (selectivity index)” value in data set [2] (cytotoxic IC50 (L6) / IC50 Pf) amounted to 3. In data set [3] (cytotoxic IC50 (L6) / IC50 Tbr), the “SI Tbr (selectivity index)” value is reported as 2.
Regarding `CC(=O)OC1C2OC3(C=CC(NC(=O)c4ccccc4)C(C)(C)C13)CC1=CCC3(C)C(C(C)N(C)C)C(O)CC3(C)C12` (stereo not drawn) [Compound 21, obtusiepoxamine-A], the IC50 came to 10 ± 1.1 µM in data set [2] (setting [6]) and 2.2 ± 0.2 µM in data set [3] (setting [7]).
Taken in the same sequence, the figures for `CC(=O)O[C@H]1[C@@H](O)[C@@H]2C(=CC[C@]3(C)[C@@H]([C@H](C)N(C)C)CC[C@@]23C)CC2=CC[C@H](NC(=O)c3ccccc3)C(C)(C)[C@@H]21` [Compound 23, 16-deoxyobtusidienolamine-A] were 30 ± 6.5 µM and 6.5 ± 0.4 µM.
With `CCN(CC)CCCC(C)Nc1ccnc2cc(Cl)ccc12` (stereo not drawn) [chloroquine, reference compound], the IC50 in data set [2] (NF54, read-out: IC50 Pf) is 2 ng/mL; in data set [2] (NF54, read-out: Pf IC50) it was 0.012 µM.
Take `Nc1nc(N)nc(Nc2ccc([As]3SCC(CO)S3)cc2)n1` (stereo not drawn) [melarsoprol, reference compound]: the IC50 in data set [3] (Trypanosoma brucei, read-out: IC50 Tbr) came to 4 ng/mL; in data set [3] (Trypanosoma brucei, read-out: Tbr IC50), 0.013 ± 0.001 µM.
In the case of `COc1cc([C@@H]2c3cc4c(cc3[C@H](O)[C@H]3COC(=O)[C@H]23)OCO4)cc(OC)c1OC` [podophyllotoxin, reference compound], the IC50 in data set [1] (Table 1, crude extracts and acid-base fractions, mean of two determinations ± absolute deviation, read-out: IC50 Cytotox. L6) was determined as 7 ± 2 ng/mL.
On to `O=C([O-])C(F)(F)F.[Na+]` [sodium trifluoroacetate], for which the “activity against the target parasites (Tbr)” value in data set [4] was “inactive”. In addition, in data set [5], the “activity against the target parasites (Pf)” value was “inactive”.
